{
  "source": "patent US10631557B2",
  "about": "“Preservative system for acidic beverages based on sequestrants” (PepsiCo, Inc., priority 2008, dated 2020)",
  "key": {"[1]": {"conditions": "acid pH", "source_text": "Further, at least one regulatory agency in Asia has established an upper limit for the use of potassium sorbate at 50 ppm. If other regulatory agencies follow suite, it will be necessary to broadly apply a complement to potassium sorbate. […] Beverages are generally produced from concentrates and a […] beverage concentrate should contain 1200-1500 ppm potassium sorbate to yield a finished beverage concentration of 240-300 ppm. This often proves problematic during the batching of beverage and it is clear that a final beverage formulation containing 50-150 ppm potassium sorbate would be favored."}, "[2]": {"tested_on": "Mold (M1 & M6)", "conditions": "pH 3.4", "source_text": "(§1) Copper, less than 1 microgram per liter Zinc less than 1 microgram per liter, Nickel, less than 1 microgram per liter and Iron less than 0.1 microgram per liter. The water hardness was/is adjusted to 50 ppm through addition of mixture of CaCl2 and MgCl2.\n(§2) The spoilage organisms for the following examples are identified as follows: Y3, Zygosaccharomyces bailii isolate of Pepsi (Strain 906); C-7UP, Brettanomyces isolate of Pepsi, (Cherry 7-UP); Spore, ascospore preparation of Saccharomyces cerevisiae isolate of Pepsi (strain “spore”). Y22, ATCC 60484 Zygosacharomyces bailii; M1, Paecilomyces isolate of Pepsi; Y107 ATCC 52407; M2 ATCC 36614 Byssochlamys nieva. An inoculum of approximately 40 per milliliter was/is employed for each organism. All test samples were/are incubated 16 weeks at 25 C.\n(§3) A preparation of beverage was divided into multiple small volume aliquots, each aliquot containing a different concentration of potassium sorbate. The range of concentration of potassium sorbate is 0-0.094% (0-940 ppm). Preparations (aliquots) of beverage containing potassium sorbate at each test concentration (48 different values) are inoculated separately with one of 7 different spoilage organisms (bio-indicator) for a total of 336 test samples.\n(§4) A preparation of beverage was divided into three aliquots; one was supplemented with EDTA (30 ppm) and the remaining two aliquots were supplemented with either 15 or 30 ppm EDDS.\n(§5) A 2% fruit juice based non-carbonated beverage of pH 3.4 and about 12Brix was formed by combining the following ingredients.\n(§6) The beverage aliquots were identical with the exception of the presence or concentration of either EDTA or EDDS. Each aliquot was divided further into smaller volume test samples wherein the concentration of potassium sorbate varies from 0-1500 ppm (0-0.15%). The concentration of EDTA or EDDS is held constant. Under these circumstances, it is possible to establish whether either EDTA or EDDS permitted the use of lowered concentrations of potassium sorbate to preserve a product of pH 3.4. […] The beverage is formulated to contain 50 ppm hardness."}, "[3]": {"tested_on": "strain Y3", "conditions": "potassium sorbate alone", "source_text": "as §1, §2, §3\n(§7) The 2% fruit juice based non-carbonated beverage of pH 3.4 and about 12 Brix was generated by combining the following ingredients."}, "[4]": {"tested_on": "bio-indicators in the absence of Y3", "conditions": "potassium sorbate alone, pH 3.4, 16 weeks at 25 C, FIG. 3A", "source_text": "as §1, §2, §3, §7"}, "[5]": {"conditions": "25 C; cited from earlier work"}, "[6]": {"experiment": "Stability against heat or acid induced hydrolysis in beverage", "format": "physicochemical", "conditions": "thermal processing or ambient aqueous solution", "procedure": "The maximum temperature of product in container of 71.3° C. permits the use of standard PET containers as opposed to the environmentally less-sound heat-set PET containers typically employed in hot fill operations. […] A formulation containing SHMP in place of bis-phosphonate will fail because of the degradation of SHMP that occurs during thermal processing.\nFurthermore, the problem of pH drift that accompanies the use of SHMP is avoided. Substituting EDDS for EDTA avoids the concerns associated with employing a substance that is not environmentally sound.\nBis-phosphonates, as a substitute for SHMP, allows for the use of thermal processing of beverage in that all bis-phosphonates are stable against heat or acid induced hydrolysis. Such is not the case for polyphosphates such as SHMP. Furthermore, the problem of pH drift that accompanies the use of SHMP at ambient temperatures is avoided. Substituting EDDS for EDTA avoids the concerns associated with employing a substance that is not environmentally sound."}, "[7]": {"tested_on": "all 7 bio-indicator strains", "experiment": "Inoculated 2% juice beverage pH 3.4, sequestrant and weak acid combinations (Examples 27-29)", "format": "cell-based", "conditions": "for SHMP concentration that prohibits outgrowth of all 7 bio-indicator strains: potassium sorbate 0.015%", "source_text": "as §1, §2, §4, §6\nThe biodegradable sequestrant ethylene diamine disuccinic acid was admixed with a sodium hexametaphosphate and cinnamic acid in the beverage as shown in the formula for the beverage.\nA 2% fruit juice based non-carbonated beverage of pH 3.4 and about 12 Brix was formed by combining the following ingredients.\nThe biodegradable sequestrant ethylene diamine disuccinic acid was admixed with a bis-phosphonate (Etidronate) wherein the two sequestrants combined to limit the availability of divalent cations to spoilage microorganisms. The beverage was also supplemented with potassium sorbate.\nas §5"}, "[8]": {"tested_on": "Saccharomyces cerevisae", "experiment": "Growth in beverage acidified to pH 3.6 with malic acid (Example 33)", "format": "cell-based"}, "[9]": {"tested_on": "Strain Y3", "experiment": "Yeast strains spotted on agar-solidified beverage plates containing a weak organic acid (Example 25)", "format": "cell-based, Zygossacharomyces bailii", "conditions": "sodium benzoate 700 or 1000 ppm, potassium sorbate 500 or 800 ppm, cinnamic acid 25-200 ppm", "procedure": "A 2 fold concentrate of beverage was prepared and was then mixed with an equal volume of 15% molten agar. Before solidification of the agar, the single strength beverage formulation containing 7.5% molten agar, was then divided into aliquots and to each separate aliquot was added, with the exception of one, sodium benzoate, potassium sorbate or cinnamic acid. The aliquot not receiving either potassium sorbate or cinnamic acid served as a positive control. While the agar was still molten, the agar-beverage aliquots (containing a single weak acid at a specified concentration) were poured into separate Petri plates. In Two agar plates. sodium benzoate was present at either 700 ppm or 1000 ppm) Two agar plates contained potassium sorbate (500 or 800 ppm). Six agar plates contained cinnamic acid ranging in concentrations of 25-200 ppm. Agar solidification essentially provides single strength beverage formulation in a semi-solid state.\nThe 2 fold concentrate of single strength beverage and the agar supplemented single strength beverage is prepared as follows:\nAfter solidification of juice-agar mixture, various yeast strains (FIG. 2A) were spotted to the gel-surface of each type of mixture employing an identical pattern in each test (FIG. 2B) such that it was possible to identify the outgrowth of specific individual strains. […]"}},
  "note": "Values joined by “and” are separate entries in the source; they are usually repeats but may differ in a detail not shown here. Equal entries are not always repeated. Where two headings read alike, the source gives them in different places.",
  "data": [
    {"smiles": "C/C=C/C=C/C(=O)[O-].[K+]", "note": "[potassium sorbate]", "values": [
      {"measurement": "rate of dissolution", "setting": "[1]", "result": "measurably low"},
      {"measurement": "solubility", "setting": "[1]", "result": "not particularly soluble"},
      {"measurement": "concentration of potassium sorbate required to inhibit mold", "setting": "[2]; combined with EDDS (30 ppm)", "result": "140-160 ppm"},
      {"measurement": "concentration of potassium sorbate required to inhibit mold", "setting": "[2]; combined with EDTA (30 ppm)", "result": "140-160 ppm"},
      {"measurement": "concentration of potassium sorbate required to inhibit mold", "setting": "[2]; potassium sorbate employed alone", "result": "180-200 ppm"},
      {"measurement": "concentration of potassium sorbate required to inhibit Y3 or similar strains", "setting": "[3]; pH 3.4, 16 weeks at 25 C, FIG. 3A", "result": "550-600 ppm"},
      {"measurement": "range of potassium sorbate concentrations with both growth and growth-free samples of Y3", "setting": "[3]; pH 3.4, FIG. 3A", "result": "460-660 ppm"},
      {"measurement": "amount of potassium sorbate required to preserve product in the absence of Y3", "setting": "[4]", "result": "220-250 ppm"}
    ]},
    {"smiles": "O=C(O)CN(CCN(CC(=O)O)CC(=O)O)CC(=O)O", "note": "[EDTA, ethylenediamine tetraacetic acid]", "values": [
      {"measurement": "log K for sodium", "setting": "[5]", "result": 1.7}
    ]},
    {"smiles": "O=P1([O-])OP(=O)([O-])OP(=O)([O-])OP(=O)([O-])OP(=O)([O-])OP(=O)([O-])O1.[Na+].[Na+].[Na+].[Na+].[Na+].[Na+]", "note": "[SHMP, sodium hexametaphosphate]", "values": [
      {"measurement": "stability against heat or acid induced hydrolysis", "setting": "[6]", "result": "degradation"},
      {"measurement": "SHMP concentration that prohibits outgrowth of all 7 bio-indicator strains", "setting": "[7]; with 30 ppm EDDS, pH 3.4, FIG. 6A", "result": 280, "unit": "ppm"},
      {"measurement": "SHMP concentration that prohibits outgrowth of all 7 bio-indicator strains", "setting": "[7]; with 30 ppm EDTA, pH 3.4, FIG. 6B", "result": 250, "unit": "ppm"}
    ]},
    {"smiles": "CC(O)(P(=O)(O)O)P(=O)(O)O", "note": "[Etridonate, (1-hydroxyethylidene)bis-phosphonate]", "values": [
      {"measurement": "Etridonate concentration that prevents outgrowth of all seven spoilage organisms", "setting": "[7]; with 30 ppm EDDS (so in the source) and 150 ppm potassium sorbate, pH 3.4, FIG. 6D", "result": 250, "unit": "ppm"},
      {"measurement": "Etridonate concentration that prohibits outgrowth of all seven bio-indicator strains", "setting": "[7]; with 30 ppm EDDS and 150 ppm potassium sorbate, pH 3.4, FIG. 6C", "result": "< 425 ppm and < 450 ppm"}
    ]},
    {"smiles": "O=C(O)CC(NCCNC(CC(=O)O)C(=O)O)C(=O)O", "note": "(centres unmarked) [EDDS, ethylenediamine-N,N′-disuccinic acid]", "values": [
      {"measurement": "preservative performance compared with EDTA when combined with a single weak acid preservative", "setting": "[7]; 15 or 30 ppm EDDS vs 30 ppm EDTA, potassium sorbate varied, FIGS. 4A-4C", "result": "equivalent to EDTA"}
    ]},
    {"smiles": "O=C([O-])C=Cc1ccccc1.[K+]", "note": "[K+cinnamate, Potassium Cinnamate]", "values": [
      {"measurement": "K+cinnamate concentration that prohibits outgrowth of all 7 bio-indicator strains", "setting": "[7]; with 30 ppm EDDS and 750 ppm SHMP, pH 3.4, FIG. 5B", "result": "no more than 50 ppm"},
      {"measurement": "K+cinnamate concentration that prohibits outgrowth of all 7 bio-indicator strains", "setting": "[7]; with 30 ppm EDTA and 750 ppm SHMP, pH 3.4, FIG. 5A", "result": 75, "unit": "ppm"}
    ]},
    {"smiles": "NCCCC(O)(P(=O)(O)O)P(=O)(O)O", "note": "[Alendronate, alendronate]", "values": [
      {"measurement": "effect on growth rate of Saccharomyces cerevisae", "setting": "[8]; 0.3% concentration, same beverage formulation pH 3.6", "result": "retards the growth rate"}
    ]},
    {"smiles": "O=C(O)C=Cc1ccccc1", "note": "[Cinnamic acid, cinnamic acid]", "values": [
      {"measurement": "tolerance of strain Y3 to organic acid preservative (outgrowth on plate)", "setting": "[9]", "result": "among the most tolerant strains"}
    ]},
    {"smiles": "CCCCCN(C)CCC(O)(P(=O)(O)O)P(=O)(O)O", "note": "[Ibandronate, ibandronate]", "values": [
      {"measurement": "effect on growth of Saccharomyces cerevisae", "setting": "[8]; about 300 ppm, beverage pH 3.6 with malic acid", "result": "impair the growth"}
    ]}
  ]
}
